Measurements taken from patent publication US11518740B2, “Pleuromutilin (phenylthio)acetic acid ester with anti-drug resistant bacteria activity and a method of preparing the same” (SHAANXI UNIVERSITY OF SCIENCE AND TECHNOLOGY, priority 2021, dated 2022).

Assays:
Format in all cases: cell-based
[1] = tested on: multi-resistant Staphylococcus aureus 171; assay: Paper diffusion method drug sensitivity test, MRSA-171; conditions: for inhibitory effect (in words): multi-drug resistant Staphylococcus aureus 171, summary of FIGS. 1-3 and Table 1; for Zone of inhibition: strain MRSA-171, drug sensitive paper 30 μg/tablet, 37° C., 24 h
Description: (§1) The antimicrobial efficacy was determined by a paper diffusion method drug sensitivity test.
(§2) Experimental strains: multi-resistant Staphylococcus aureus 171, multi-resistant Staphylococcus aureus 222, multi-resistant Staphylococcus aureus 596. The experimental strains were identified by Huashan Hospital Affiliated to Fudan University (Institute of Antibiotic of Fudan University).
(§3) Drug sensitive paper: The drug sensitive paper is a special drug sensitive paper with a diameter of 6.35 mm and a water absorption of 0.02 mL. The control drug was vancomycin (30 μg/tablet); the test drugs were pleuromutilin (phenylithio)acetic acid ester (30 μg/tablet).
(§4) Reagents: LB agar medium, LA broth medium, dichloromethane.
(§5) The experimental strains were inoculated in non-selective medium and placed in air at 37° C. for 24 h. Pick a single colony that grows well and inoculate it into broth medium, incubate at 35° C.±2° C. for 6 hours, and use LA broth medium to calibrate the concentration of the bacterial solution to 0.5 Mie turbidimetric tube (1.5×10^8 CFU/mL). A bacterial suspension is obtained.
as §5, with “([…]” for “(1.5×10^8”
(§6) LB dry powder was weighed, sterilized at 103.4 Kpa, 121.3° C. high-pressure steam for 15 min, and then placed it in a 40° C.-50° C. water bath. A sterile empty plate (inner diameter 9 cm) was placed on the surface of the ultra-clean table water table, and […] to the plate. The thickness of each plate was 3 mm to 4 mm. After the plate was cooled at room temperature, it was stored in the refrigerator at 2° C.-8° C. A sterile cotton swab was used to dip the bacterial solution and to evenly coat the surface of the LB plate 3 times. After inoculation of the bacterial suspension, the LB plate was dried at room temperature for 3 min to 5 min. Sterile forceps were used to closely attach the antibacterial drug paper to the dish. The dish was put upside down and placed in a 37° C. incubator for 24 h. The results were observed by measuring the diameter. Taking 0.5% DMSO solution as a negative control, the antibacterial activity is expressed by the diameter of the inhibition zone. The inhibition zone≥17 mm, sensitive; the inhibition zone of 15 mm-16 mm, intermediary; the inhibition zone≤14 mm, drug resistance.

[2] = tested on: multi-resistant Staphylococcus aureus 596; assay: Paper diffusion method drug sensitivity test, MRSA-596; conditions: for inhibitory effect (in words): multi-drug resistant Staphylococcus aureus 596, summary of FIGS. 1-3 and Table 1; for Zone of inhibition: strain MRSA-596, drug sensitive paper 30 μg/tablet, 37° C., 24 h
Description: as §1, §2, §3, §4, §5
as §5, with “([…]” for “(1.5×10^8”
as §6

[3] = tested on: multi-resistant Staphylococcus aureus 222; assay: Paper diffusion method drug sensitivity test, MRSA-222; conditions: for inhibitory effect (in words): multi-drug resistant Staphylococcus aureus 222, summary of FIGS. 1-3 and Table 1; for Zone of inhibition: strain MRSA-222, drug sensitive paper 30 μg/tablet, 37° C., 24 h
Description: as §1, §2, §3, §4, §5
as §5, with “([…]” for “(1.5×10^8”
as §6

SMILES | inhibitory effect (in words) [1] | inhibitory effect (in words) [2] | Zone of inhibition [2] | inhibitory effect (in words) [3] | Zone of inhibition [3] | Zone of inhibition [1]
C=C[C@]1(C)CC(OC(=O)COC(=O)CSc2ccccc2)[C@]2(C)[C@H](C)CC[C@]3(CCC(=O)[C@H]32)[C@@H](C)[C@@H]1O (some centres unmarked) | strong inhibitory effects | strong inhibitory effects | 23 mm | strong inhibitory effects | 15 mm | –
O=C(O)CSc1ccccc1 [(Phenylithio)acetic acid] | no inhibitory effect | no inhibitory effect | 0 mm | no inhibitory effect | 0 mm | 0 mm
C=C[C@]1(C)C[C@@H](OC(=O)CO)[C@]2(C)[C@H](C)CC[C@]3(CCC(=O)[C@H]32)[C@@H](C)[C@@H]1O [Pleuromutilin] | no inhibitory effect | no inhibitory effect | 0 mm | no inhibitory effect | 0 mm | 0 mm
CN[C@H](CC(C)C)C(=O)N[C@H]1C(=O)N[C@@H](CC(N)=O)C(=O)N[C@H]2C(=O)N[C@H]3C(=O)N[C@H](C(=O)N[C@H](C(=O)O)c4cc(O)cc(O)c4-c4cc3ccc4O)[C@H](O)c3ccc(c(Cl)c3)Oc3cc2cc(c3O[C@@H]2O[C@H](CO)[C@@H](O)[C@H](O)[C@H]2O[C@H]2C[C@](C)(N)[C@H](O)[C@H](C)O2)Oc2ccc(cc2Cl)[C@H]1O [Vancomycin] | – | – | 21 mm | – | 18 mm | 17 mm
